Laboratory results reported in patent US12617762B2, “Carboxy derivatives with antiinflamatory properties” (Sitryx Therapeutics Limited, priority 2019, dated 2026).
Where two headings read alike, the source gives them in different places.

How the values were obtained:
[1] = Hepatocyte stability assay, mouse; assay type: in vitro ADME; details: mouse, hepatocytes; for hepatocyte CLint at 10 μM: Hepatocyte stability Clint; for half-life at 10 μM: Hepatocyte stability T½
In short: (§1)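 Thawed cryopreserved hepatocytes (viability >70%) at 0.5×10^6 cells/mL in Leibovitz buffer were preincubated at 37° C, then given 10 μM compound (0.1% DMSO) in duplicate. Samples at 0–60 min were quenched in acetonitrile and analysed by LC-MS/MS. Intrinsic clearance and half-life were derived from ln % remaining versus time.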

[2] = test system: NRF2 (nuclear factor erythroid 2-related factor 2); assay: NRF2 +/-GSH activation assay (DiscoverX PathHunter NRF2 translocation kit, U2OS cells); assay type: cell-based; details: for NRF2 activation +GSH Emax / NRF2 activation −GSH Emax: normalised to DMF high control
In short: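 Activation is expressed as percent of plate DMF (high) versus no-DMF (low) controls, from luminescence after 6 h compound exposure at 37 °C of U2OS PathHunter cells. The +GSH condition used compound pre-incubated 30 min in 6 mM working GSH; −GSH cells received compound directly.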

[3] = test system: IL-1β cytokine output from THP-1s; assay: THP-1 AlphaLISA IL-1β cytokine inhibition assay; assay type: cell-based; details: Homo sapiens, THP-1, differentiated THP-1 cells, LPS then nigericin
In short: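 IL-1β release by AlphaLISA, expressed as % inhibition against +/− LPS controls on each plate. Differentiation: PMA, 72 h. Sequence: 30 min compound pre-treatment, LPS 24 h, Nigericin 1 h before supernatant harvest, all at 37° C./5% CO2.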

[4] = Hepatocyte stability assay, human; assay type: in vitro ADME; details: human, hepatocytes; for hepatocyte CLint at 10 μM: Hepatocyte stability Clint; for half-life at 10 μM: Hepatocyte stability T½
In short: as §1

[5] = test system: IL-6 cytokine output from THP-1s; assay: THP-1 AlphaLISA IL-6 cytokine inhibition assay; assay type: cell-based; details: Homo sapiens, LPS then nigericin
In short: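 THP-1 cells differentiated with PMA for 72 h, then pre-incubated with compound 30 min, stimulated with LPS 24 h, then Nigericin 1 h, all at 37° C. Supernatant IL-6 measured by AlphaLISA. Percentage inhibition normalized to +/− LPS plate controls.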

[6] = +GSH, 30 minute compound-GSH pre-incubation, read-out: NRF2 activation +GSH EC50
[7] = −GSH, U2OS PathHunter cells, 6 hours compound treatment, read-out: NRF2 activation −GSH EC50
[8] = THP-1, differentiated THP-1 cells

SMILES	hepatocyte CLint at 10 μM [1] [µL/min/1e6 cells]	half-life at 10 μM [1] [min]	EC50 [2, 6] [µM]	NRF2 activation +GSH Emax ([2]; +GSH) [%]	EC50 [2, 7] [µM]	NRF2 activation −GSH Emax ([2]; −GSH) [%]	IC50 [3] [µM]	hepatocyte CLint at 10 μM [4] [µL/min/1e6 cells]	half-life at 10 μM [4] [min]	IC50 [5, 8] [µM]	IC50 ([5]; differentiated THP-1 cells) [µM]
C=C(Cc1nc(C(F)(F)c2ccc(Cl)cc2)no1)C(=O)O [Example 74, 2-((3-((4-chlorophenyl)difluoromethyl)-1,2,4-oxadiazol-5-yl)methyl)acrylic acid]	31	47	44.4	65	24.4	174	6.4	< 3	> 430	9	–
C=C(Cc1nc(C2(c3ccc(C(F)(F)F)cc3)CC2)co1)C(=O)O [Example 103, 2-((4-(1-(4-(trifluoromethyl)phenyl)cyclopropyl)oxazol-2-yl)methyl)acrylic acid]	94	16	42.7	190	40.5	306	14.4	43	31	19.7	–
C=C(Cc1ccc(CCCCCCCC)cn1)C(=O)O [Example 105]	> 460	< 3	5.3	166	5.3	257	4.2	> 460	< 3	–	2
C=C(Cc1nc(CCCCCCCCC(F)(F)F)no1)C(=O)O [Example 60, 2-((3-(9,9,9-trifluorononyl)-1,2,4-oxadiazol-5-yl)methyl)acrylic acid]	257	6	9	110	8.4	195	11.2	137	11	6	–
C=C(Cc1nc(CCCCCCCCCCC)no1)C(=O)O [Example 56, 2-((3-undecyl-1,2,4-oxadiazol-5-yl)methyl)acrylic acid]	> 460	< 3	3.1	110	2.8	175	3.4	> 460	< 3	3.3	–
C=C(Cc1ncc(CCCCCCCC)o1)C(=O)O [Example 59, 2-((5-octyloxazol-2-yl)methyl)acrylic acid]	> 460	< 3	5.4	136	3.9	213	6.9	> 460	< 3	–	7.2
C=C(Cc1nc(-c2ccc(C(F)(F)CCCC)cc2)no1)C(=O)O [Example 79, 2-((3-(4-(1,1-difluoropentyl)phenyl)-1,2,4-oxadiazol-5-yl)methyl)acrylic acid]	> 460	< 3	2.1	181	1.8	271	6.7	147	11	2.2	–
C=C(Cc1nc(C(F)(F)c2ccc(SC(F)(F)F)cc2)no1)C(=O)O [Example 155, 2-((3-(difluoro(4-((trifluoromethyl)thio)phenyl)methyl)-1,2,4-oxadiazol-5-yl)methyl)acrylic acid]	87	17	13.7	123	11.2	201	9.1	8	201	–	13.1
C=C(Cc1nc(C2(c3ccc(Cl)c(F)c3)CC2)no1)C(=O)O [Example 52, 2-((3-(1-(4-chloro-3-fluorophenyl)cyclopropyl)-1,2,4-oxadiazol-5-yl)methyl)acrylic acid]	134	10	> 100	40	15.2	78	19.4	24	55	25.5	–
